In brackets after ≈: the same amount, converted by molar mass.
How the values were obtained:
[1] = system: Escherichia coli; assay: Minimal inhibitory concentration, broth micro dilution method; format: cell-based; conditions: overnight incubation, OD 610 nm, stock in DMSO, read-out: MIC E. Coli (G−)
Procedure: (§1) Minimal inhibition concentration (MIC) is the lowest concentration of an antimicrobial agent that can inhibit the visible growth of a microorganism after overnight incubation. The MIC values of zinc:usnate complex and usnic acid against Staphylococcus aureus and Escherichia coli were determined with the broth micro dilution method. Briefly, 0.1% stock solutions were prepared in dimethyl sulfoxide (DMSO). Using a 96-well microtitre plate, the corresponding testing concentrations are 500, 250, 125, 62, 31, 16, 8, 4, 2, 1, 0.5 and 0.2 ppm, respectively. The optic density readings at 610 nm for each well were used to assess the level of bacterial growth.

[2] = system: Staphylococcus aureus; assay: as above; format: cell-based; conditions: overnight incubation, OD 610 nm, stock in DMSO, read-out: MIC S. aureus (G+)
Procedure: as §1

[3] = DI water at 35° C.; Jin et al., J Solution Chem., 2013; cited from earlier work

## CC(=O)c1c(O)c(C)c(O)c2c1OC1=CC(=O)C(C(C)=O)C(=O)C12C (stereo not drawn) [Usnic Acid, usnic acid]
[1]
  MIC: > 125 µg/mL
[2]
  MIC: 4 µg/mL (≈ 11.6 µM)
[3]
  solubility: 6.3 ppm
